Like-named read-outs stand apart in the source and are kept apart here.
Experiments:
Lp-PLA2 in human plasma = target: T1, Lp-PLA2 in human plasma (Homo sapiens, UniProt Q13093); test: Lp-PLA2 human plasma assay (Thio-PAF assay); assay type: biochemical; conditions: pooled human plasma; read-out: pIC50 values in the thio-PAF assay (converted)
T1 construct: from tissue; host or cells: pooled human plasma
T1 sequence (Q13093 22-441): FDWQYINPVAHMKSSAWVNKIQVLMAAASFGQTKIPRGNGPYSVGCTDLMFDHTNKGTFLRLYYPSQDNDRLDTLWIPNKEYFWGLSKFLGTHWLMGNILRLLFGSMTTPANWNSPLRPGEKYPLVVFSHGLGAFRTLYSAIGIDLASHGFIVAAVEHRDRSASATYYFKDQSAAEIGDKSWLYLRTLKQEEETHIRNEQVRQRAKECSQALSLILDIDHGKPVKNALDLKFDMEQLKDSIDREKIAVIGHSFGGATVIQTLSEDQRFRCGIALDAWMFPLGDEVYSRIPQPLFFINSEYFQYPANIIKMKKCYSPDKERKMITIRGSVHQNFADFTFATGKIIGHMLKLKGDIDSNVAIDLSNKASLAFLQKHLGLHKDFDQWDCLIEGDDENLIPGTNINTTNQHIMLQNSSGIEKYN
Excerpt: The human plasma assay utilizes a thioester analog of PAF (phosphatidylcholine), where hydrolysis yields to the formation of a phospholipid containing a free thiol group. The amount of thiol is quantitated continuously by reacting with CPM (7-diethylamino-3-(4′-maleimidylphenyl)-4-methylcoumarin), a maleimide which increases in fluoresence after Michael addition of thiols. This assay may detect the activity of Lp-PLA2 in human plasma, as determined by specific inhibition by Lp-PLA2 inhibitors.
The thio-PAF assay was run as a quenched 15 μL assay. Compounds source plate was prepared by making 1:3 (by volume) serial dilution of the compounds into pure DMSO on 384-well microplate. 0.01 μL of compounds on compound source plate were transferred to 384 well Greiner 784076 (black) low-volume plates by ECHO liquid dispenser. 8 μL pooled human plasma, which was previously aliquoted and frozen, was added. Plates were centrifuged for 10 sec at 500 rpm. After 30 minutes preincubation, 2 μL of substrate solution comprising 2.5 mM 2-thio-PAF [from ethanol stock], […] CPM [from a DMSO stock] and 3.2 mM NEM (N-ethylmaleimide) [made fresh daily in DMSO] in assay buffer of 50 mM HEPES, pH 7.4, 150 mM NaCl, 1 mM CHAPS was added to 384 well Greiner 784076 (black) low-volume plates by BRAVO liquid handling station. After 2 mins, reaction was quenched with 5 μL of 5% aqueous trifluoroacetic acid (TFA). Plates were covered to protect from light and incubated for 40 min at room temperature. Plates were read at ex: 380/em: 485 using—Envision microplate reader. pIC50 data, curve and QC analysis was conducted by using XLFit module in Excel.

[1] = target: T2, recombinant human Lp-PLA2 (Homo sapiens, UniProt Q13093); test: Recombinant human Lp-PLA2 assay (rhLp-PLA2, PED6 assay); assay type: biochemical; conditions: upper limit for pIC50 in this assay is 9.3
T2 sequence (Q13093 22-441): T1 sequence (Q13093 22-441)
Excerpt: (1) Recombinant Human Lp-PLA2 Assay (rhLp-PLA2) (Also Referred to as “PED6” Assay)
N-((6-(2,4-dinitrophenyl)amino)-hexanoyl)-2-(4,4-difluoro-5,7-dimethyl-4-bora-3a,4a-diaza-s-indacene-3-pentanoyl)-1-hexadecanoyl-sn-glycero-3-phosphoethanolamine, triethylammonium salt (PED6) is a commercially available fluorescently-labeled phospholipid, which is commercially available from Invitrogene and Molecular Probes. There is a quenching […] and a Bodipy fluorescein (FL) group in the sn2 position. Upon cleavage with Lp-PLA2, the Bodipy FL group is liberated and then may result in an increase in fluorescence. Inhibitors of Lp-PLA2 therefore prevent this cleavage and no fluorescent increase is observed.
The PED6 assay was run as an unquenched 10 μL assay. The source plate containing the compounds to be tested was prepared by making 1:3 (by volume) serial dilution of the compounds within DMSO on 384-well microplate. Then, 0.01 μL of the compounds on compound source plate were transferred into 384 well Greiner 784076 (black) plates using ECHO liquid dispenser. 5 μL of recombinant human Lp-PLA2 enzyme (4 nM (or 110 pM) rhLp-PLA2 in assay buffer of 50 mM HEPES, pH 7.4, 150 mM NaCl, 1 mM CHAPS) was added to each well of the plate. Plates were centrifuged for 10 sec at 500 rpm. After 30 minutes preincubation, 5 μL of substrate ([…] (or 5 μM) PED6 [from 5 mM DMSO stock] in assay buffer of 50 mM HEPES, pH 7.4, 150 mM NaCl, 1 mM CHAPS) was added to 384 well Greiner 784076 (black) plates. Plates were centrifuged for 10 sec at 500 rpm. The plate was covered to protect it from light and incubated for 20 min at room temperature. The plates were read for fluorescence intensity at ex: 480/em: 540 using ViewLux microplate imager for Envision spectrofluoroimeters pIC50 data, curve and QC analysis was conducted by using XL fit module in Excel.
The compounds described below were tested generally according to the PED6 assay described above.

[2] = read-out: pIC50 values in the PED6 assay (converted)
[3] = Table 1, read-out: rhLp-PLA2 (PED6 assay) (pIC50) (converted)

Compound	IC50 (Lp-PLA2 in human plasma) [nM]	IC50 [1, 2] [nM]	IC50 [1, 3] [nM]
CN1CCCn2c1cc(OCc1ccc(Oc3cccc(C(F)(F)F)c3)c(C#N)c1)nc2=O [Example 1, 5-(((1-methyl-6-oxo-2,3,4,6-tetrahydro-1H-pyrimido[1,6-a]pyrimidin-8-yl)oxy)methyl)-2-(3-(trifluoromethyl)phenoxy)benzonitrile]	≤ 100	≤ 10	
CN1CCCn2c1cc(OCc1ccc(Oc3ccc(Cl)nc3)c(F)c1)nc2=O [Example 95, 8-((4-((6-chloropyridin-3-yl)oxy)-3-fluorobenzyl)oxy)-1-methyl-3,4-dihydro-1H-pyrimido[1,6-a]pyrimidin-6(2H)-one]	≤ 100	≤ 1	
CN1CCCn2c1cc(OCCc1ccc(Oc3ccc(Cl)c(F)c3)cc1)nc2=O [Example 103, 8-(4-(4-chloro-3-fluorophenoxy)phenethoxy)-1-methyl-3,4-dihydro-1H-pyrimido[1,6-a]pyrimidin-6(2H)-one]	≤ 1000	≤ 10	
O=c1nc(OCc2cc(F)c(Oc3ccc(C(F)(F)F)nc3)c(F)c2)cc2n1CCCN2 [Example 75, 8-((3,5-difluoro-4-((6-(trifluoromethyl)pyridin-3-yl)oxy)benzyl)oxy)-3,4-dihydro-1H-pyrimido[1,6-a]pyrimidin-6(2H)-one]	≤ 100	≤ 1	< 0.501
O=c1nc(OCc2ccc(Oc3ccc(F)c(F)c3)c(F)c2)cc2n1CCCN2 [Example 117, 8-((4-(3,4-difluorophenoxy)-3-fluorobenzyl)oxy)-3,4-dihydro-1H-pyrimido[1,6-a]pyrimidin-6(2H)-one]	≤ 100	≤ 1	
CN1CCCn2c1cc(OCc1ccc(Oc3ccc(F)c(C(F)(F)F)c3)c(F)c1)nc2=O [Example 13, 8-((3-fluoro-4-(4-fluoro-3-(trifluoromethyl)phenoxy)benzyl)oxy)-1-methyl-3,4-dihydro-1H-pyrimido[1,6-a]pyrimidin-6(2H)-one]	≤ 100	≤ 10	
CN1CCCn2c1cc(OCc1ccc(Oc3cccc(F)c3)c(C#N)c1)nc2=O [Example 80, 2-(3-fluorophenoxy)-5-(((1-methyl-6-oxo-2,3,4,6-tetrahydro-1H-pyrimido[6-a]pyrimidin-8-yl)oxy)methyl)benzonitrile]	≤ 100	≤ 1	
CN1CCCn2c1cc(OCc1ccc(Oc3ccc(C(F)(F)F)cc3)c(C#N)c1)nc2=O [Example 29, 5-(((1-methyl-6-oxo-2,3,4,6-tetrahydro-1H-pyrimido[1,6-a]pyrimidin-8-yl)oxy)methyl)-2-(4-(trifluoromethyl)phenoxy)benzonitrile]	≤ 100	≤ 10	
O=c1nc(OCc2cc(F)c(Oc3ccc(F)cc3)c(F)c2)cc2n1CCCN2 [Example 114, 8-((3,5-difluoro-4-(4-fluorophenoxy)benzyl)oxy)-3,4-dihydro-1H-pyrimido[1,6-a]pyrimidin-6(2H)-one]	≤ 100	≤ 1	
CN1CCCn2c1cc(OCc1ccc(Oc3cc(F)cc(F)c3)c(F)c1)nc2=O [Example 58, 8-((4-(3,5-difluorophenoxy)-3-fluorobenzyl)oxy)-1-methyl-3,4-dihydro-1H-pyrimido[1,6-a]pyrimidin-6(2H)-one]	≤ 100	≤ 1	< 0.501
N#Cc1cc(COc2cc3n(c(=O)n2)CCCN3)ccc1Oc1ccc(C(F)(F)F)cn1 [Example 92, 5-(((6-oxo-2,3,4,6-tetrahydro-1H-pyrimido[1,6-a]pyrimidin-8-yl)oxy)methyl)-2-((5-(trifluoromethyl)pyridin-2-yl)oxy)benzonitrile]	≤ 100	≤ 10	
CN1CCCn2c1cc(OCc1ccc(Oc3ccc(Cl)c(C(F)(F)F)c3)cc1)nc2=O [Example 6, 8-((4-(4-chloro-3-(trifluoromethyl)phenoxy)benzyl)oxy)-1-methyl-3,4-dihydro-1H-pyrimido[1,6-a]pyrimidin-6(2H)-one]	≤ 1000	≤ 10	
CN1CCCn2c1cc(OCc1ccc(Oc3cc(F)cc(C#N)c3)c(F)c1)nc2=O [Example 98, 3-fluoro-5-(2-fluoro-4-(((1-methyl-6-oxo-2,3,4,6-tetrahydro-1H-pyrimido[1,6-a]pyrimidin-8-yl)oxy)methyl)phenoxy)benzonitrile]	≤ 100	≤ 1	
CN1CCCn2c1cc(OCCc1ccc(Oc3ccc(Cl)c(F)c3)c(F)c1)nc2=O [Example 102, 8-(4-(4-chloro-3-fluorophenoxy)-3-fluorophenethoxy)-1-methyl-3,4-dihydro-1H-pyrimido[1,6-a]pyrimidin-6(2H)-one]	≤ 1000	≤ 1	
CN1CCCn2c1cc(OCCc1ccc(Oc3cccc(C(F)(F)F)c3)c(F)c1)nc2=O [Example 105, 8-(3-fluoro-4-(3-(trifluoromethyl)phenoxy)phenethoxy)-1-methyl-3,4-dihydro-1H-pyrimido[1,6-a]pyrimidin-6(2H)-one]	≤ 100	≤ 1	
CN1CCCn2c1cc(OCc1ccc(Oc3ccc(Cl)c(Cl)c3)cc1)nc2=O [Example 7, 8-((4-(3,4-dichlorophenoxy)benzyl)oxy)-1-methyl-3,4-dihydro-1H-pyrimido[1,6-a]pyrimidin-6(2H)-one]	≤ 100	≤ 1	0.794
N#Cc1cc(COc2cc3n(c(=O)n2)CCCN3)ccc1Oc1cccc(C(F)(F)F)c1 [Example 53, 5-(((6-oxo-2,3,4,6-tetrahydro-1H-pyrimido[1,6-a]pyrimidin-8-yl)oxy)methyl)-2-(3-(trifluoromethyl)phenoxy)benzonitrile]	≤ 100	≤ 1	1
O=c1nc(OCc2ccc(F)c(F)c2)cc2n1CCCN2 [Example 99, 8-((3,4-difluorobenzyl)oxy)-3,4-dihydro-1H-pyrimido[1,6-a]pyrimidin-6(2H)-one]	≤ 100	≤ 10	
CN1CCCn2c1cc(OCCc1ccc(Oc3ccc(Cl)c(C(F)(F)F)c3)cc1)nc2=O [Example 55, 8-(4-(4-chloro-3-(trifluoromethyl)phenoxy)phenethoxy)-1-methyl-3,4-dihydro-1H-pyrimido[1,6-a]pyrimidin-6(2H)-one]	≤ 100	≤ 1	
CC(C)N1CCCn2c1cc(OCc1ccc(Oc3ccc(C(F)(F)F)nc3)c(F)c1)nc2=O [Example 38, 8-((3-fluoro-4-((6-(trifluoromethyl)pyridin-3-yl)oxy)benzyl)oxy)-1-isopropyl-3,4-dihydro-1H-pyrimido[1,6-a]pyrimidin-6(2H)-one]	≤ 100	≤ 10	

Source: patent US20130030012A1, “COMPOUNDS” (Glaxo Group Limited, priority 2011, published 2013)
